The results in this text go back to patent US10508088B2, “Methods using HDAC11 inhibitors” (FORMA Therapeutics, Inc., priority 2016, dated 2019).

Each structure is given as a SMILES string. Bounds are passed on as bounds.

Recombinant N-terminal GST tag full-length human HDAC11, sequence (Q96DB2 whole entry): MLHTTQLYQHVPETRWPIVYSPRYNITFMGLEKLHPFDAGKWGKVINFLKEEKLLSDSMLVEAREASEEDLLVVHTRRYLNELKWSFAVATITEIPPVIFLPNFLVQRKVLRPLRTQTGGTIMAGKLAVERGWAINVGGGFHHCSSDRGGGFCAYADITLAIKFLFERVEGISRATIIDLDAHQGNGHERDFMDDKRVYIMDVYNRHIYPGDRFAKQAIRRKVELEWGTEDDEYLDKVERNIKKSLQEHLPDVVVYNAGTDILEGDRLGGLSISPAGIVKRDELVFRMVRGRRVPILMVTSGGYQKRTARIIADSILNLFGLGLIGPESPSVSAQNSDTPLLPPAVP

The first assay concerns the target Recombinant N-terminal GST tag full-length human HDAC11 (Homo sapiens (Human), UniProt Q96DB2). In words: Probe binding HDAC11 assay, time resolved fluorescence (TRF). The note with it: read-out: HDAC11 IC50 Range.
What is called IC50 is the concentration needed to halve the response being measured. `O=C(NO)c1cccc(Nc2nc3cc(C(F)(F)F)c(-c4cccc(O)c4)cc3[nH]2)c1` [Example 36-10, N-hydroxy-3-((6-(3-hydroxyphenyl)-5-(trifluoromethyl)-1H-benzo[d]imidazol-2-yl)amino)benzamide]: the IC50 is under 500 nM.
For the compound `O=C(NO)c1cccc(Nc2nc3cc(C(F)(F)F)c(-c4ccccc4CO)cc3[nH]2)c1` [Example 36-11, N-hydroxy-3-((6-(2-(hydroxymethyl)phenyl)-5-(trifluoromethyl)-1H-benzo[d]imidazol-2-yl)amino)benzamide], the IC50 is under 500 nM.
Same read-out and setting: the same measure for `CN(C)c1ccc(-c2cc3[nH]c(Nc4cccc(C(=O)NO)c4)nc3cc2C(F)(F)F)cn1` [Example 36-12, 3-((6-(6-(dimethylamino)pyridin-3-yl)-5-(trifluoromethyl)-1H-benzo[d]imidazol-2-yl)amino)-N-hydroxybenzamide]: under 500 nM; for `O=C(NO)c1cccc(Nc2nc3cc(C(F)(F)F)c(-c4cnc(N5CCOCC5)nc4)cc3[nH]2)c1` [Example 36-13, N-hydroxy-3-((6-(2-morpholinopyrimidin-5-yl)-5-(trifluoromethyl)-1H-benzo[d]imidazol-2-yl)amino)benzamide]: under 500 nM.
Same read-out and setting: the figure for `O=C(NO)c1cccc(Nc2nc3cc(C(F)(F)F)c(-c4cccc(C(=O)N5CCOCC5)c4)cc3[nH]2)c1` [Example 36-14, N-hydroxy-3-((6-(3-(morpholine-4-carbonyl)phenyl)-5-(trifluoromethyl)-1H-benzo[d]imidazol-2-yl)amino)benzamide] is under 500 nM; for `O=C(NO)c1cccc(Nc2nc3cc(C(F)(F)F)c(-c4cc(F)ccc4CO)cc3[nH]2)c1` [Example 36-15, 3-((6-(5-fluoro-2-(hydroxymethyl)phenyl)-5-(trifluoromethyl)-1H-benzo[d]imidazol-2-yl)amino)-N-hydroxybenzamide] it is under 500 nM.
As to `COCc1cccc(-c2cc3[nH]c(Nc4cccc(C(=O)NO)c4)nc3cc2C(F)(F)F)c1` [Example 36-16, N-hydroxy-3-((6-(3-(methoxymethyl)phenyl)-5-(trifluoromethyl)-1H-benzo[d]imidazol-2-yl)amino)benzamide], the IC50 was under 500 nM.
On the same count and under the same terms, the figure for `Cn1ncc2ccc(-c3cc4[nH]c(Nc5cccc(C(=O)NO)c5)nc4cc3C(F)(F)F)cc21` [Example 36-17, N-hydroxy-3-((6-(1-methyl-1H-indazol-6-yl)-5-(trifluoromethyl)-1H-benzo[d]imidazol-2-yl)amino)benzamide] is under 500 nM; for `CN(C)C(=O)c1cccc(-c2cc3[nH]c(Nc4cccc(C(=O)NO)c4)nc3cc2C(F)(F)F)c1` [Example 36-18, 3-(2-((3-(hydroxycarbamoyl)phenyl)amino)-5-(trifluoromethyl)-1H-benzo[d]imidazol-6-yl)-N,N-dimethylbenzamide] it is under 500 nM; for `O=C(NO)c1cccc(Nc2nc3cc(C(F)(F)F)c(-c4ccc(N5CCOCC5)cc4)cc3[nH]2)c1` [Example 36-19, N-hydroxy-3-((6-(4-morpholinophenyl)-5-(trifluoromethyl)-1H-benzo[d]imidazol-2-yl)amino)benzamide] it is under 500 nM.
In the case of `O=C(NO)c1cccc(Nc2nc3cc(C(F)(F)F)c(-c4ccoc4)cc3[nH]2)c1` [Example 36-20, 3-((6-(furan-3-yl)-5-(trifluoromethyl)-1H-benzo[d]imidazol-2-yl)amino)-N-hydroxybenzamide], the IC50 is under 500 nM.
Still for that read-out and setting: the same measure for `O=C(NCc1ccccc1)ONC(=O)c1cccc(Nc2nc3cc(-c4ccccc4)c(C(F)(F)F)cc3[nH]2)c1` [Example 37-1, N-((benzylcarbamoyl)oxy)-3-((5-phenyl-6-(trifluoromethyl)-1H-benzo[d]imidazol-2-yl)amino)benzamide]: under 500 nM; for `CN(c1cccc(C(=O)NOC(=O)NCc2ccccc2)c1)c1nc2cc(C#N)c(C(F)(F)F)cc2[nH]1` [Example 37-2, N-((benzylcarbamoyl)oxy)-3-((5-cyano-6-(trifluoromethyl)-1H-benzo[d]imidazol-2-yl)(methyl)amino)benzamide]: over 1000 nM.

The target in another assay is Full length human recombinant HDAC11 (Homo sapiens (Human), UniProt Q96DB2). In words: Enzymatic HDAC11 assay, electrophoretic mobility shift. The conditions noted are these: substrate FAM-RHKK(tri-fluor-Ac)-NH2, read-out: HDAC11 IC50 Range. The format is biochemical. On the procedure: The enzymatic HDAC11 assay was performed using electrophoretic mobility shift assay. Full length human recombinant HDAC11 protein was expressed in baculoviral system and purified by affinity chromatography. The enzymatic reactions were assembled in 384 well plates in a total volume of 25 μL in a reaction buffer composing: 100 mM HEPES, pH 7.5, 25 mM KCl, 0.1% bovine serum albumin, 0.01% Triton X-100, 1% DMSO (from compounds) 2 μM of the fluorescently labeled peptide substrate and enzyme. The enzyme was added at a final concentration of 10 nM. The peptide substrate FAM-RHKK(tri-fluor-Ac)-NH2 was used. The compounds were tested at 12 concentrations spaced by 3× dilution intervals. Negative control samples (0%-inhibition in the absence of inhibitor) and positive control samples (100%-inhibition) were assembled in replicates of four in each assay plate. The reactions were incubated at 25° C. and quenched by the addition of 45 μL of termination buffer (100 mM HEPES, pH 7.5, 0.01% Triton X-100, 0.05% SDS).
Full length human recombinant HDAC11, sequence (Q96DB2 whole entry): as above
The terminated assay plates were analyzed on LabChip® 3000 microfluidic electrophoresis instrument (Perkin Elmer/Caliper Life Sciences). The fluorescence intensity of the electrophoretically separated de-acetylated product and substrate peptide was measured. Activity in each sample was determined as the product to sum ratio (PSR):P/(S+P), where P is the peak height of the product peptide and S is the peak height of the substrate peptide. Percent inhibition (Pinh) is determined using the following equation: Pinh=(PSR0%−PSRinh)/(PSR0%−PSR100%)*100,
where PSRinh is the product sum ratio in the presence of inhibitor, PSR0% is the average product sum ration in the absence of inhibitor and PSR100% is the average product sum ratio in 100%-inhibition control samples. The IC50 values of inhibitors were determined by fitting the percent inhibition curves with 4 parameter dose-response model using XLfit 4 software.
Background: Mobility shift assays separate free from complexed probe on a gel.
With `O=C(NO)c1cccc2c1CC1(CCN(Cc3ccc(Cl)cc3)C1=O)C2` (stereo not drawn) [II-1, 1′-(4-chlorobenzyl)-N-hydroxy-2′-oxo-1,3-dihydrospiro[indene-2,3′-pyrrolidine]-4-carboxamide], the IC50 is under 500 nM.
As for `CN1CCC2(Cc3cccc(C(=O)NO)c3C2)C1=O` (stereo not drawn) [II-2, N-hydroxy-1′-methyl-2′-oxo-1,3-dihydrospiro[indene-2,3′-pyrrolidine]-4-carboxamide], the IC50 was over 1000 nM.
As to `O=C(NO)c1cccc2c1C[C@@]1(CCN(Cc3ccc(Cl)c(C(F)(F)F)c3)C1=O)C2` [II-3, (R)-1′-(4-chloro-3-(trifluoromethyl)benzyl)-N-hydroxy-2′-oxo-1,3-dihydrospiro[indene-2,3′-pyrrolidine]-4-carboxamide], the IC50 is under 500 nM.
`O=C(NO)c1cccc2c1CC1(CCN(Cc3ccc(C(F)(F)F)c(F)c3)C1=O)C2` (stereo not drawn) [II-5, 1′-(3-fluoro-4-(trifluoromethyl)benzyl)-N-hydroxy-2′-oxo-1,3-dihydrospiro[indene-2,3′-pyrrolidine]-4-carboxamide]: the half-maximal inhibitory concentration (IC50) is under 500 nM.
Same read-out and setting: the figure for `O=C(NO)c1cccc2c1CC1(CCN(Cc3ccc(C(F)(F)F)cc3)C1=O)C2` (stereo not drawn) [II-6, N-hydroxy-2′-oxo-1′-(4-(trifluoromethyl)benzyl)-1,3-dihydrospiro[indene-2,3′-pyrrolidine]-4-carboxamide] is under 500 nM; for `O=C(NO)c1cccc2c1CC1(CCN(Cc3ccc(F)cc3)C1=O)C2` (stereo not drawn) [II-7, 1′-(4-fluorobenzyl)-N-hydroxy-2′-oxo-1,3-dihydrospiro[indene-2,3′-pyrrolidine]-4-carboxamide] it is 500 to 1000 nM.
With `CS(=O)(=O)c1ccc(CN2CCC3(Cc4cccc(C(=O)NO)c4C3)C2=O)cc1` (stereo not drawn) [II-8, N-hydroxy-1′-(4-(methylsulfonyl)benzyl)-2′-oxo-1,3-dihydrospiro[indene-2,3′-pyrrolidine]-4-carboxamide], the IC50 is over 1000 nM.
Consider `O=C(NO)c1cccc2c1CC1(CCN(C3CC3)C1=O)C2` (stereo not drawn) [II-9, 1′-cyclopropyl-N-hydroxy-2′-oxo-1,3-dihydrospiro[indene-2,3′-pyrrolidine]-4-carboxamide], for which the IC50 was over 1000 nM.
Turning to `O=C(NO)c1cccc2c1CC1(CCN(CC3CCC3)C1=O)C2` (stereo not drawn) [II-10, 1′-(cyclobutylmethyl)-N-hydroxy-2′-oxo-1,3-dihydrospiro[indene-2,3′-pyrrolidine]-4-carboxamide], the IC50 is over 1000 nM.
With `O=C(NO)c1cccc2c1CC1(CCN(c3ccc(C(F)(F)F)cc3)C1=O)C2` (stereo not drawn) [II-11, N-hydroxy-2′-oxo-1′-(4-(trifluoromethyl)phenyl)-1,3-dihydrospiro[indene-2,3′-pyrrolidine]-4-carboxamide], the IC50 was over 1000 nM.
As for `O=C(NO)c1cccc2c1CC1(CCN(c3cccc(C(F)(F)F)c3)C1=O)C2` (stereo not drawn) [II-12, N-hydroxy-2′-oxo-1′-(3-(trifluoromethyl)phenyl)-1,3-dihydrospiro[indene-2,3′-pyrrolidine]-4-carboxamide], the IC50 is 500 to 1000 nM.
Consider `O=C(NO)c1cccc2c1CC1(CCN(c3ccccc3C(F)(F)F)C1=O)C2` (stereo not drawn) [II-13, N-hydroxy-2′-oxo-1′-(2-(trifluoromethyl)phenyl)-1,3-dihydrospiro[indene-2,3′-pyrrolidine]-4-carboxamide], for which the IC50 is over 1000 nM.
For the compound `O=C(NO)c1cccc2c1CC1(CCN(Cc3ccccc3)C1=O)C2` (stereo not drawn) [II-14, 1′-benzyl-N-hydroxy-2′-oxo-1,3-dihydrospiro[indene-2,3′-pyrrolidine]-4-carboxamide], the half-maximal inhibitory concentration (IC50) is over 1000 nM.
For `O=C(NO)c1cccc2c1CC1(CCN(CCCc3ccccc3)C1=O)C2` (stereo not drawn) [II-15, N-hydroxy-2′-oxo-1′-(3-phenylpropyl)-1,3-dihydrospiro[indene-2,3′-pyrrolidine]-4-carboxamide], the IC50 is over 1000 nM.
In the case of `O=C(NO)c1cccc2c1CC1(CCN(Cc3ccc(-c4ccccc4)cc3)C1=O)C2` (stereo not drawn) [II-16, 1′-([1,1′-biphenyl]-4-ylmethyl)-N-hydroxy-2′-oxo-1,3-dihydrospiro[indene-2,3′-pyrrolidine]-4-carboxamide], the IC50 was under 500 nM.
`Cc1cccc(CN2CCC3(Cc4cccc(C(=O)NO)c4C3)C2=O)c1` (stereo not drawn) [II-17, N-hydroxy-1′-(3-methylbenzyl)-2′-oxo-1,3-dihydrospiro[indene-2,3′-pyrrolidine]-4-carboxamide]: the IC50 is 500 to 1000 nM.
In the case of `O=C(NO)c1cccc2c1CC1(CCN(Cc3cccc(-c4ccccc4)c3)C1=O)C2` (stereo not drawn) [II-18, 1′-([1,1′-biphenyl]-3-ylmethyl)-N-hydroxy-2′-oxo-1,3-dihydrospiro[indene-2,3′-pyrrolidine]-4-carboxamide], the IC50 is under 500 nM.
